What is called TGI is the concentration giving total growth inhibition. Higher therefore signals lower sensitivity of the cells.

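Each compound was tested at five concentrations against cells in 96-well plates for 48 hours. At the TGI there is no net growth.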

The record followed here is PubChem BioAssay (NCI).

Among the test systems are HCT-15 colon; HT29 colon; LOX IMVI melanoma; MDA-N; RPMI-8226 leukemia; 786-0 renal; KM20L2 colon; XF 498 CNS; DMS 114 small cell lung; DLD-1 colon; M19-MEL melanoma; LXFL 529 NSCLC; DMS 273 small cell lung; SNB-78 CNS; HOP-18 NSCLC.
What all share (test): DTP human tumour cell line panel, 48 h

Consider `O=P1(Oc2ccc(Cl)cc2)OCCS1` (configuration not stated), for which the TGI in the experiment on HCT-15 colon, in the experiment on HT29 colon, in the experiment on LOX IMVI melanoma, in the experiment with MDA-N, in the experiment with RPMI-8226 leukemia and with 786-0 renal was more than 100 µM in each case.

With `CC1(C)CN=C(Nc2ccc(Cl)cc2)S1`, the TGI in the experiment on HCT-15 colon, in the experiment on HT29 colon, with LOX IMVI melanoma, in the experiment with MDA-N, with RPMI-8226 leukemia and in the experiment on 786-0 renal was more than 100 µM throughout.

With `CCOC(=O)c1cc2c([nH]1)C(=O)CC1=C2CCN1Cc1ccccc1`, the TGI in the experiment with HCT-15 colon was 21.6 µM; in the experiment on HT29 colon, 30.8 µM; in the experiment on LOX IMVI melanoma it was 29.1 µM; in the experiment with MDA-N, 26.8 µM; in the experiment on RPMI-8226 leukemia, 16.6 µM; in the experiment on 786-0 renal it was 31 µM.

Take `CC(=O)Nc1cc2c(cc1O)CC[C@@H]1[C@@H]2CC[C@]2(C)[C@@H](O)CC[C@@H]12`: the TGI was 54.5 µM in the experiment with HCT-15 colon; more than 100 µM with HT29 colon; more than 100 µM in the experiment with LOX IMVI melanoma; 52.1 µM in the experiment on MDA-N; more than 100 µM in the experiment on RPMI-8226 leukemia; more than 100 µM in the experiment with 786-0 renal.

For `N#CC(C#N)=C(N)/C(C#N)=C/c1cc(O)c(O)c(Br)c1`, the TGI in the experiment with HCT-15 colon, in the experiment with HT29 colon, in the experiment on LOX IMVI melanoma, in the experiment with KM20L2 colon, with MDA-N and with RPMI-8226 leukemia was more than 100 µM throughout. Moreover, the TGI was more than 100 µM in the experiment on XF 498 CNS; 88.5 µM in the experiment with DMS 114 small cell lung; more than 100 µM with 786-0 renal; more than 100 µM in the experiment with DLD-1 colon; more than 100 µM in the experiment with M19-MEL melanoma; more than 100 µM with LXFL 529 NSCLC. Further, the concentration for total growth inhibition (TGI) with DMS 273 small cell lung and in the experiment with SNB-78 CNS was more than 100 µM in each case.

For the compound `O=C1NC(=O)C(C(c2ccc(Cl)cc2)C2C(=O)NC(=O)NC2=O)C(=O)N1`, the TGI with HCT-15 colon, in the experiment with HT29 colon, in the experiment on LOX IMVI melanoma, in the experiment with MDA-N, in the experiment on RPMI-8226 leukemia and in the experiment with 786-0 renal was more than 100 µM in each case.

Turning to `Cc1ccc2[nH]c3[nH]c(=O)[nH]c(=O)c3c2c1`, the TGI in the experiment with HCT-15 colon, with HT29 colon, with LOX IMVI melanoma, in the experiment on MDA-N, in the experiment with RPMI-8226 leukemia and in the experiment with 786-0 renal was more than 100 µM in each case.

For the compound `CC(C)CC(=O)NC(NC(C)C)(C(F)(F)F)C(F)(F)F`, the TGI in the experiment on HCT-15 colon, in the experiment with HT29 colon, in the experiment on LOX IMVI melanoma, in the experiment with MDA-N, in the experiment on RPMI-8226 leukemia and with 786-0 renal was more than 100 µM each time.

Turning to `CC1=CCC[C@@H]2[C@@](C)(Cc3cc(O)ccc3O)[C@H](C)CC[C@@]12C`, the TGI was determined as 16 µM in the experiment with HCT-15 colon; 42.7 µM in the experiment with HT29 colon; 17.7 µM with LOX IMVI melanoma; 17 µM in the experiment with MDA-N; 21.7 µM in the experiment with RPMI-8226 leukemia; 21.7 µM in the experiment with 786-0 renal.

Regarding `COc1cc(C(N)=O)cc(NC(=O)/C=C/c2ccccc2)c1OC`, the concentration for total growth inhibition (TGI) with HCT-15 colon, in the experiment on HT29 colon, in the experiment on LOX IMVI melanoma, in the experiment on MDA-N, with RPMI-8226 leukemia and in the experiment with 786-0 renal was more than 100 µM each time.

On to `CCCC(=O)OC[n+]1cccc(-c2c(COC(=O)NC(C)C)c(COC(=O)NC(C)C)c3n2CCC3)c1`, for which the TGI in the experiment on HCT-15 colon, in the experiment on HT29 colon, with LOX IMVI melanoma, in the experiment with MDA-N, in the experiment with RPMI-8226 leukemia and in the experiment on 786-0 renal was more than 100 µM in each case.

Regarding `COC(=O)C(Cc1ccccc1I)C1=CCC2(CC1)OCCO2` (configuration not stated), the TGI was more than 100 µM with HCT-15 colon; more than 100 µM in the experiment with HT29 colon; 58.7 µM in the experiment with LOX IMVI melanoma; 67.4 µM in the experiment on MDA-N; more than 100 µM in the experiment on RPMI-8226 leukemia; more than 100 µM in the experiment on 786-0 renal.

With `CC(=O)NCCc1c[nH]c2ccc(Cl)cc12`, the TGI with HCT-15 colon, in the experiment on HT29 colon, in the experiment with LOX IMVI melanoma, with MDA-N, with RPMI-8226 leukemia and with 786-0 renal was more than 100 µM throughout.

`O=C(CCc1ccc(O)c(O)c1)NCCc1cc(OCc2ccccc2)cc(OCc2ccccc2)c1`: the TGI in the experiment on HCT-15 colon was 11 µM; in the experiment with HT29 colon it was 77.8 µM; in the experiment on LOX IMVI melanoma it was 34.5 µM; in the experiment with MDA-N, 29.2 µM; in the experiment with RPMI-8226 leukemia, more than 100 µM; in the experiment on 786-0 renal, 40 µM.

As for `COc1ccc([N-]/C(=N\n2c(=O)c(C)nn(C)c2=S)N(c2ccc(OC)cc2)c2nn3c(=O)c(C)n[n+](C)c3s2)cc1`, the TGI with HCT-15 colon, in the experiment on HT29 colon, with LOX IMVI melanoma, in the experiment on KM20L2 colon, with RPMI-8226 leukemia and in the experiment on DMS 114 small cell lung was more than 100 µM in each case. Besides, the TGI in the experiment on 786-0 renal, with DLD-1 colon, in the experiment with M19-MEL melanoma, in the experiment on LXFL 529 NSCLC, with DMS 273 small cell lung and in the experiment with HOP-18 NSCLC was more than 100 µM throughout. This compound showed a TGI in the experiment on SNB-78 CNS of more than 100 µM.

On to `CC(=O)OCC12C(OC(C)=O)C[C@@H](C)C3(CC(c4ccoc4)OC3=O)C1CCC(O)C21CO1` (some centres not stated), for which the TGI with HCT-15 colon, in the experiment on HT29 colon, in the experiment with LOX IMVI melanoma, in the experiment on MDA-N, in the experiment on RPMI-8226 leukemia and with 786-0 renal was more than 100 µM in each case.

Take `Cc1c(CCCl)c(N=[N+]=[N-])n2c(nc3ccccc32)c1C#N`: the TGI with HCT-15 colon was determined as 2.72 µM; in the experiment on HT29 colon, 4.52 µM; in the experiment with LOX IMVI melanoma, 2.37 µM; in the experiment on MDA-N, 3.12 µM; in the experiment with RPMI-8226 leukemia it was 2.33 µM; in the experiment with 786-0 renal, 1.63 µM.
